What all share (test): Test G Pre-Emergence Protocol
Holding throughout (type): in vivo

For experiment [1], the system named is barnyardgrass (Echinochloa crus-galli). To be noted: Echinochloa crus-galli, pre-emergence, 312 h, evaluated after 13 days; for pest or weed control at 15.625 g/ha: 15.625 g ai/ha, read-out: Barnyard grass damage rating (100=total damage to plant; 0=no damage to plant); for pest or weed control at 62.5 g/ha: 62.5 g ai/ha, 100=total damage to plant, 0=no damage to plant, read-out: plant damage rating, Barnyardgrass; for pest or weed control at 250 g/ha: 250 g ai/ha, read-out: Barnyardgrass damage rating (100=total damage to plant; 0=no damage to plant). An outline of the steps: (§1)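 Pots of seeds in standard soil were grown for one day in a glasshouse (24/16 °C day/night, 14 h light, 65% humidity), then sprayed with compound in acetone/water 50:50 with 0.5% Tween 20 at 15.625, 62.5 or 250 g/ha. Damage was scored after 13 days on a 0 (none) to 100 (total) scale.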

The subject of another experiment is corn (Zea mays). To be noted: Zea mays, pre-emergence, 312 h, evaluated after 13 days; for plant injury at 15.625 g/ha: 15.625 g ai/ha; for plant injury at 15.625 g/ha / plant injury at 250 g/ha: read-out: Corn damage rating (100=total damage to plant; 0=no damage to plant); for plant injury at 62.5 g/ha: 62.5 g ai/ha, 100=total damage to plant, 0=no damage to plant, read-out: plant damage rating, Corn; for plant injury at 250 g/ha: 250 g ai/ha. Put shortly: as §1

Experiment [2] has as its system giant foxtail (Setaria faberi). To be noted: Setaria faberi, pre-emergence, 312 h, evaluated after 13 days; for pest or weed control at 15.625 g/ha: 15.625 g ai/ha; for pest or weed control at 15.625 g/ha / pest or weed control at 250 g/ha: read-out: Foxtail, Giant damage rating (100=total damage to plant; 0=no damage to plant); for pest or weed control at 62.5 g/ha: 62.5 g ai/ha, 100=total damage to plant, 0=no damage to plant, read-out: plant damage rating, Foxtail, Giant; for pest or weed control at 250 g/ha: 250 g ai/ha. Put shortly: as §1

The test system of experiment [3] is ivy-leaved morning glory (Ipomoea hederacea). To be noted: Ipomoea, pre-emergence, 312 h, evaluated after 13 days; for pest or weed control at 15.625 g/ha: 15.625 g ai/ha, read-out: Morning-glory, Ivy-leaved damage rating (100=total damage to plant; 0=no damage to plant); for pest or weed control at 62.5 g/ha: 62.5 g ai/ha, 100=total damage to plant, 0=no damage to plant, read-out: plant damage rating, Morningglory, Ivy-leaved; for pest or weed control at 250 g/ha: 250 g ai/ha, read-out: Morningglory, Ivy-leaved damage rating (100=total damage to plant; 0=no damage to plant). An outline of the steps:
as §1

For experiment [4], the system named is redroot pigweed (Amaranthus retroflexus). To be noted: Amaranthus retroflexus, pre-emergence, 312 h, evaluated after 13 days; for pest or weed control at 15.625 g/ha: 15.625 g ai/ha; for pest or weed control at 15.625 g/ha / pest or weed control at 250 g/ha: read-out: Pigweed, Redroot damage rating (100=total damage to plant; 0=no damage to plant); for pest or weed control at 62.5 g/ha: 62.5 g ai/ha, 100=total damage to plant, 0=no damage to plant, read-out: plant damage rating, Pigweed, Redroot; for pest or weed control at 250 g/ha: 250 g ai/ha. Put shortly: as §1

For experiment [5], the system named is velvetleaf (Abutilon theophrasti). To be noted: Abutilon theophrasti, pre-emergence, 312 h, evaluated after 13 days; for pest or weed control at 15.625 g/ha: 15.625 g ai/ha; for pest or weed control at 15.625 g/ha / pest or weed control at 250 g/ha: read-out: Velvetleaf damage rating (100=total damage to plant; 0=no damage to plant); for pest or weed control at 62.5 g/ha: 62.5 g ai/ha, 100=total damage to plant, 0=no damage to plant, read-out: plant damage rating, Velvetleaf; for pest or weed control at 250 g/ha: 250 g ai/ha. Put shortly: as §1

We go through seven compounds from US12077503B2, “Substituted cyclic amides and their use as herbicides” (FMC CORPORATION, priority 2015, dated 2024).

Consider `CN1C[C@@H](c2ccc(C(F)(F)F)cc2)[C@H](C(=O)Nc2ccccc2)C1=O` (racemic) [Compound 1404], for which the pest or weed control at 15.625 g/ha in experiment [1], in experiment [2], in experiment [3], in experiment [4] and in experiment [5] was 0% each time. The pest or weed control at 62.5 g/ha came out at 20% in experiment [1]; 70% in experiment [2]; 10% in experiment [3]; 0% in experiment [4]; 0% in experiment [5]. Besides, the pest or weed control at 250 g/ha in experiment [1] is 70%; in experiment [2] it was 80%; in experiment [3], 20%; in experiment [4], 20%; in experiment [5], 0%. In addition, the plant injury at 15.625 g/ha in the experiment on corn (Zea mays) was found to be 0%. For the same compound, in the experiment on corn (Zea mays), the plant injury at 62.5 g/ha was found to be 0%. The plant injury at 250 g/ha in the experiment with corn (Zea mays) stood at 0%.

`CN1C[C@H](c2ccc3c(c2)CCO3)[C@@H](C(=O)Nc2cccc(F)c2F)C1=O` (racemic) [Compound 1499]: in experiment [1], the pest or weed control at 15.625 g/ha worked out at 0%, the pest or weed control at 62.5 g/ha was found to be 80% and the pest or weed control at 250 g/ha amounted to 90%. In the experiment on corn (Zea mays), the plant injury at 15.625 g/ha came out at 0%, the plant injury at 62.5 g/ha amounted to 0% and the plant injury at 250 g/ha is 80%. Also, in experiment [2], the pest or weed control at 15.625 g/ha amounted to 0%, the pest or weed control at 62.5 g/ha turned out to be 80% and the pest or weed control at 250 g/ha was 80%. Besides, in experiment [3], the pest or weed control at 15.625 g/ha came out at 0%, the pest or weed control at 62.5 g/ha was found to be 0% and the pest or weed control at 250 g/ha turned out to be 100%. In experiment [4], the pest or weed control at 62.5 g/ha is 0% and the pest or weed control at 250 g/ha was 0%. Besides, in experiment [5], the pest or weed control at 15.625 g/ha was found to be 0%, the pest or weed control at 62.5 g/ha was determined as 0% and the pest or weed control at 250 g/ha was determined as 30%.

In the case of `CN1C[C@H](c2ccc3occc3c2)[C@@H](C(=O)Nc2cccc(F)c2F)C1=O` (racemic) [Compound 1500], the pest or weed control at 15.625 g/ha in experiment [1] was found to be 30%; in experiment [2] it was 60%; in experiment [3] it was 0%; in experiment [4], 0%; in experiment [5], 0%. Further, the pest or weed control at 62.5 g/ha in experiment [1] was 90%; in experiment [2], 80%; in experiment [4] it was 0%; in experiment [5] it was 0%. Also, the pest or weed control at 250 g/ha in experiment [1] was determined as 90%; in experiment [2], 80%; in experiment [3], 20%; in experiment [4], 80%; in experiment [5], 20%. In addition, in the experiment with corn (Zea mays), the plant injury at 15.625 g/ha amounted to 0%. The plant injury at 62.5 g/ha in the experiment with corn (Zea mays) stood at 0%. Also, the plant injury at 250 g/ha in the experiment with corn (Zea mays) worked out at 30%.

As to `Cc1c(NC(=O)[C@@H]2C(=O)N(C)C[C@H]2c2ccc(C(F)(F)F)cc2)ccc(F)c1F` (racemic) [Compound 1502], in experiment [1], the pest or weed control at 15.625 g/ha is 20%, the pest or weed control at 62.5 g/ha is 60% and the pest or weed control at 250 g/ha stood at 80%. Further, in the experiment on corn (Zea mays), the plant injury at 15.625 g/ha was determined as 0%, the plant injury at 62.5 g/ha came out at 0% and the plant injury at 250 g/ha is 50%. Moreover, in experiment [2], the pest or weed control at 15.625 g/ha amounted to 60%, the pest or weed control at 62.5 g/ha was 90% and the pest or weed control at 250 g/ha worked out at 90%. Also, in experiment [3], the pest or weed control at 15.625 g/ha turned out to be 0%, the pest or weed control at 62.5 g/ha was determined as 0% and the pest or weed control at 250 g/ha came to 0%. Further, in experiment [4], the pest or weed control at 15.625 g/ha came out at 0%, the pest or weed control at 62.5 g/ha came out at 20% and the pest or weed control at 250 g/ha worked out at 70%. Moreover, in experiment [5], the pest or weed control at 15.625 g/ha was determined as 0%, the pest or weed control at 62.5 g/ha was found to be 0% and the pest or weed control at 250 g/ha amounted to 10%.

As for `Cc1ccncc1NC(=O)[C@@H]1C(=O)N(C)C[C@H]1c1ccc(C(F)(F)F)cc1` (racemic) [Compound 1505], in experiment [1], the pest or weed control at 15.625 g/ha stood at 0%, the pest or weed control at 62.5 g/ha is 0% and the pest or weed control at 250 g/ha was found to be 20%. Moreover, in the experiment on corn (Zea mays), the plant injury at 15.625 g/ha was 0%, the plant injury at 62.5 g/ha stood at 0% and the plant injury at 250 g/ha worked out at 0%. Also, in experiment [2], the pest or weed control at 15.625 g/ha was found to be 0%, the pest or weed control at 62.5 g/ha was 10% and the pest or weed control at 250 g/ha is 30%. In experiment [3], the pest or weed control at 15.625 g/ha came out at 0% and the pest or weed control at 250 g/ha was 0%. In experiment [4], the pest or weed control at 15.625 g/ha was determined as 0%, the pest or weed control at 62.5 g/ha was 0% and the pest or weed control at 250 g/ha was 0%. Also, in experiment [5], the pest or weed control at 15.625 g/ha stood at 0%, the pest or weed control at 62.5 g/ha is 0% and the pest or weed control at 250 g/ha stood at 0%.

Consider `CN1C[C@@H](c2ccc(C(F)(F)F)cc2)[C@H](C(=O)Nc2cc(C(F)(F)F)nn2C)C1=O` (racemic) [Compound 1510], for which, in experiment [1], the pest or weed control at 15.625 g/ha was determined as 0%, the pest or weed control at 62.5 g/ha was found to be 0% and the pest or weed control at 250 g/ha is 0%. Besides, in the experiment on corn (Zea mays), the plant injury at 15.625 g/ha stood at 0%, the plant injury at 62.5 g/ha worked out at 0% and the plant injury at 250 g/ha turned out to be 0%. In experiment [2], the pest or weed control at 15.625 g/ha is 0%, the pest or weed control at 62.5 g/ha was determined as 0% and the pest or weed control at 250 g/ha stood at 0%. In addition, in experiment [3], the pest or weed control at 15.625 g/ha amounted to 0%, the pest or weed control at 62.5 g/ha worked out at 0% and the pest or weed control at 250 g/ha turned out to be 0%. For the same compound, in experiment [4], the pest or weed control at 62.5 g/ha is 0% and the pest or weed control at 250 g/ha amounted to 0%. Also, in experiment [5], the pest or weed control at 15.625 g/ha stood at 0%, the pest or weed control at 62.5 g/ha was 0% and the pest or weed control at 250 g/ha came to 0%.

With `CN1C[C@@H](c2ccc(C(F)(F)F)cc2)[C@H](C(=O)Nc2ccno2)C1=O` (racemic) [Compound 1513], the pest or weed control at 15.625 g/ha in experiment [1], in experiment [2], in experiment [3], in experiment [4] and in experiment [5] was 0% throughout. Also, the pest or weed control at 62.5 g/ha in experiment [1], in experiment [2], in experiment [3], in experiment [4] and in experiment [5] was 0% in each case. Also, the pest or weed control at 250 g/ha in experiment [1], in experiment [2], in experiment [3], in experiment [4] and in experiment [5] was 0% in each case. Moreover, in the experiment with corn (Zea mays), the plant injury at 15.625 g/ha turned out to be 0%. In the experiment on corn (Zea mays), the plant injury at 62.5 g/ha came out at 0%. Also, the plant injury at 250 g/ha in the experiment on corn (Zea mays) was found to be 0%.
